Reference: patent US10316017B2, “COT modulators and methods of use thereof” (Gilead Sciences, Inc., priority 2015, dated 2019)

Legend:
[1] = system: TNFα production in LPS-stimulated human monocytes; test: Cot Monocyte TNFα Cell Based Assay; conditions: Homo sapiens, Monocyte, LPS-stimulated human monocytes, TNFα TR-FRET; read-out: EC50 TNF
How it was run: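 TR-FRET read-out of total secreted TNFα, normalized as % control (unstimulated = 0%, LPS-stimulated = 100%). Cells (5,000/well) were exposed to compound 1 h at 37 °C, then to 50 pg/ml LPS for a further 4 h.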

[2] = biological target: T1, human Cot catalytic domain (30-397 amino acids) (Homo sapiens, UniProt P41279); test: High Throughput Cot Biochemical Assay (KinEASE TR-FRET); conditions: Cot KinEASE TR-FRET, 400 μM ATP; read-out: IC50 HTRF
T1 construct: Purified recombinant human Cot catalytic domain (30-397 amino acids) was purchased from Cama Biosciences; purchased Cama Biosciences (so in the source)
How it was run: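 TR-FRET readout: Eu-labeled phospho-specific antibody binds XL665-tagged STK3 peptide after phosphorylation by Cot (aa 30-397, 5 nM). Conditions: 400 μM ATP, 1 μM peptide, MOPS pH 7.0 buffer with MgOAc, DTT, BSA, NP-40, glycerol; 0.1% DMSO.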

T1 sequence (P41279 30-397): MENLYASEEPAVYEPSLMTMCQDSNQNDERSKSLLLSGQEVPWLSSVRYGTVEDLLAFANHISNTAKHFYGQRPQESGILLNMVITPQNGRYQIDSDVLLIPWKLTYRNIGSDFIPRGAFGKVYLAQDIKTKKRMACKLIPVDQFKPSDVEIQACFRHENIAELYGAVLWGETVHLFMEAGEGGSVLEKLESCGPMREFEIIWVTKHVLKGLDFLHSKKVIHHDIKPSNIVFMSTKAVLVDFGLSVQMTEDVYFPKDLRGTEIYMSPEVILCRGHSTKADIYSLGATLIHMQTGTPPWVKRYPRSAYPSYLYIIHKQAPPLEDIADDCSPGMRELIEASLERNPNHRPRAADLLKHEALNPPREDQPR

| Compound | EC50 [1] [nM] | IC50 [2] [nM] |
| --- | --- | --- |
| CC(C)(C)CNc1c(C#N)cnc2c(Br)cc(N[C@H](c3cn(Cc4c(F)cccc4F)nn3)c3ccccc3Cl)cc12 [Example 1052, (S)-8-bromo-6-(((2-chlorophenyl)(1-(2,6-difluorobenzyl)-1H-1,2,3-triazol-4-yl)methyl)amino)-4-(neopentylamino)quinoline-3-carbonitrile] | ≥ 1000 | 189 |
| CC(C)(C)CNc1c(C#N)cnc2c(Cl)cc(N[C@@H](c3ccccc3)c3cn(C4(C(F)(F)F)CC4)nn3)cc12 [Example 1059, (S)-8-chloro-4-(neopentylamino)-6-((phenyl(1-(1-(trifluoromethyl)cyclopropyl)-1H-1,2,3-triazol-4-yl)methyl)amino)quinoline-3-carbonitrile] | 553 | 75 |
| Cc1ccccc1[C@H](Nc1cc(Cl)c2ncc(C#N)c(NCC(C)(C)C)c2c1)c1cn(C2(C(F)F)CC2)nn1 [Example 1060, (S)-8-chloro-6-(((1-(1-(difluoromethyl)cyclopropyl)-1H-1,2,3-triazol-4-yl)(o-tolyl)methyl)amino)-4-(neopentylamino)quinoline-3-carbonitrile] | 311 | 33 |
| Cc1ccccc1[C@H](Nc1cc(Cl)c2ncc(C#N)c(NCC(C)(C)C)c2c1)c1cn(C2(C(F)(F)F)CC2)nn1 [Example 1061, (S)-8-chloro-4-(neopentylamino)-6-((o-tolyl(1-(1-(trifluoromethyl)cyclopropyl)-1H-1,2,3-triazol-4-yl)methyl)amino)quinoline-3-carbonitrile] | 620 | 85 |
| CC(C)(C)CNc1c(C#N)cnc2c(C#N)cc(N[C@@H](c3ccccc3)c3cn(C4(C(F)(F)F)CC4)nn3)cc12 [Example 1065, (S)-4-(neopentylamino)-6-((phenyl(1-(1-(trifluoromethyl)cyclopropyl)-1H-1,2,3-triazol-4-yl)methyl)amino)quinoline-3,8-dicarbonitrile] | 237 | 22 |
| Cc1c([C@H](Nc2cc(Cl)c3ncc(C#N)c(NCC(C)(C)C)c3c2)c2cn(C3(C(F)F)CC3)nn2)cccc1-n1cnnc1 [Example 1070, (S)-8-chloro-6-(((1-(1-(difluoromethyl)cyclopropyl)-1H-1,2,3-triazol-4-yl)(2-methyl-3-(4H-1,2,4-triazol-4-yl)phenyl)methyl)amino)-4-(neopentylamino)quinoline-3-carbonitrile] | 272 | 2 |
| Cc1c([C@H](Nc2cc(C#N)c3ncc(C#N)c(NCC(C)(C)C)c3c2)c2cn(C3(C(F)(F)F)CC3)nn2)cccc1-n1cnnc1 [Example 1072, (S)-6-(((2-methyl-3-(4H-1,2,4-triazol-4-yl)phenyl)(1-(1-(trifluoromethyl)cyclopropyl)-1H-1,2,3-triazol-4-yl)methyl)amino)-4-(neopentylamino)quinoline-3,8-dicarbonitrile] | ≥ 1000 | 3 |
| Cc1c([C@H](Nc2cc(C#N)c3ncc(C#N)c(NCC(C)(C)C)c3c2)c2cn(C3(C(F)F)CC3)nn2)cccc1-n1cnnc1 [Example 1073, (S)-6-(((1-(1-(difluoromethyl)cyclopropyl)-1H-1,2,3-triazol-4-yl)(2-methyl-3-(4H-1,2,4-triazol-4-yl)phenyl)methyl)amino)-4-(neopentylamino)quinoline-3,8-dicarbonitrile] | ≥ 1000 | 1 |
| CC(C)(C)CNc1c(C#N)cnc2c(Cl)cc(N[C@H](c3cn(C4(C(F)(F)F)CC4)nn3)c3cccc(C#N)c3Cl)cc12 [Example 1074, (S)-8-chloro-6-(((2-chloro-3-cyanophenyl)(1-(1-(trifluoromethyl)cyclopropyl)-1H-1,2,3-triazol-4-yl)methyl)amino)-4-(neopentylamino)quinoline-3-carbonitrile] | 435 | 48 |

Molecules with a lower EC50 [1], results first:

| EC50 [1] [nM] | IC50 [2] [nM] | Compound |
| --- | --- | --- |
| 215 | 3 | Cc1c([C@H](Nc2cc(Cl)c3ncc(C#N)c(NCC(C)(C)C)c3c2)c2cn(C3(C(F)(F)F)CC3)nn2)cccc1-n1cnnc1 [Example 1071, (S)-8-chloro-6-(((2-methyl-3-(4H-1,2,4-triazol-4-yl)phenyl)(1-(1-(trifluoromethyl)cyclopropyl)-1H-1,2,3-triazol-4-yl)methyl)amino)-4-(neopentylamino)quinoline-3-carbonitrile] |
| 213 | 17 | Cc1ccccc1[C@H](Nc1cc(C#N)c2ncc(C#N)c(NCC(C)(C)C)c2c1)c1cn(C2(C(F)(F)F)CC2)nn1 [Example 1067, (S)-4-(neopentylamino)-6-((o-tolyl(1-(1-(trifluoromethyl)cyclopropyl)-1H-1,2,3-triazol-4-yl)methyl)amino)quinoline-3,8-dicarbonitrile] |
| 200 | 26 | CC(C)(C)CNc1c(C#N)cnc2c(C#N)cc(N[C@H](c3cn(Cc4c(F)cccc4F)nn3)c3ccccc3Cl)cc12 [Example 1053, (S)-6-(((2-chlorophenyl)(1-(2,6-difluorobenzyl)-1H-1,2,3-triazol-4-yl)methyl)amino)-4-(neopentylamino)quinoline-3,8-dicarbonitrile] |
| 103 | 12 | CC(C)(C)CNc1c(C#N)cnc2c(C#N)cc(N[C@@H](c3ccccc3)c3cn(C4(C(F)F)CC4)nn3)cc12 [Example 1064, (S)-6-(((1-(1-(difluoromethyl)cyclopropyl)-1H-1,2,3-triazol-4-yl)(phenyl)methyl)amino)-4-(neopentylamino)quinoline-3,8-dicarbonitrile] |
| 100 | 3 | Cc1c(-c2ncco2)cccc1[C@H](Nc1cc(C#N)c2ncc(C#N)c(NCC(C)(C)C)c2c1)c1cn(C2(C(F)(F)F)CC2)nn1 [Example 1055, (S)-6-(((2-methyl-3-(oxazol-2-yl)phenyl)(1-(1-(trifluoromethyl)cyclopropyl)-1H-1,2,3-triazo1-4-yl)methyl)amino)-4-(neopentylamino)quinoline-3,8-dicarbonitrile] |
| 85 | 10 | Cc1ccccc1[C@H](Nc1cc(C#N)c2ncc(C#N)c(NCC(C)(C)C)c2c1)c1cn(C2(C(F)F)CC2)nn1 [Example 1066, (S)-6-(((1-(1-(difluoromethyl)cyclopropyl)-1H-1,2,3-triazol-4-yl)(o-tolyl)methyl)amino)-4-(neopentylamino)quinoline-3,8-dicarbonitrile] |
| 81 | 1 | Cc1c([C@H](Nc2cc(C#N)c3ncc(C#N)c(NCC(C)(C)C)c3c2)c2cn(C3(C(F)F)CC3)nn2)cccc1-n1cncn1 [Example 1054, (S)-6-(((1-(1-(difluoromethyl)cyclopropyl)-1H-1,2,3-triazol-4-yl)(2-methyl-3-(1H-1,2,4-triazol-1-yl)phenyl)methyl)amino)-4-(neopentylamino)quinoline-3,8-dicarbonitrile] |
| 73 | 4 | Cc1c([C@H](Nc2cc(Cl)c3ncc(C#N)c(NCC(C)(C)C)c3c2)c2cn(C3(C(F)(F)F)CC3)nn2)cccc1-n1cnnn1 [Example 1057, (S)-8-chloro-6-(((2-methyl-3-(1H-tetrazol-1-yl)phenyl)(1-(1-(trifluoromethyl)cyclopropyl)-1H-1,2,3-triazol-4-yl)methyl)amino)-4-(neopentylamino)quinoline-3-carbonitrile] |
| 73 | 6 | Cc1c([C@H](Nc2cc(Cl)c3ncc(C#N)c(NCC(C)(C)C)c3c2)c2cn(C3(C(F)(F)F)CC3)nn2)cccc1-n1ccnn1 [Example 1063, (S)-8-chloro-6-(((2-methyl-3-(1H-1,2,3-triazol-1-yl)phenyl)(1-(1-(trifluoromethyl)cyclopropyl)-1H-1,2,3-triazol-4-yl)methyl)amino)-4-(neopentylamino)quinoline-3-carbonitrile] |
| 70 | 3 | Cc1c([C@H](Nc2cc(Cl)c3ncc(C#N)c(NCC(C)(C)C)c3c2)c2cn(C3(C(F)F)CC3)nn2)cccc1-n1cnnn1 [Example 1062, (S)-8-chloro-6-(((1-(1-(difluoromethyl)cyclopropyl)-1H-1,2,3-triazol-4-yl)(2-methyl-3-(1H-tetrazol-1 yl)phenyl)methyl)amino)-4-(neopentylamino)quinoline-3-carbonitrile] |
| 63 | 2 | Cc1c(-c2ncco2)cccc1[C@H](Nc1cc(C#N)c2ncc(C#N)c(NCC(C)(C)C)c2c1)c1cn(C2(C(F)F)CC2)nn1 [Example 1056, (S)-6-(((1-(1-(difluoromethyl)cyclopropyl)-1H-1,2,3-triazol-4-yl)(2-methyl-3-(oxazol-2-yl)phenyl)methyl)amino)-4-(neopentylamino)quinoline-3,8-dicarbonitrile] |
| 58 | 3 | Cc1c([C@H](Nc2cc(C#N)c3ncc(C#N)c(NCC(C)(C)C)c3c2)c2cn(C3(C(F)(F)F)CC3)nn2)cccc1-n1ccnn1 [Example 1068, (S)-6-(((2-methyl-3-(1H-1,2,3-triazol-1-yl)phenyl)(1-(1-(trifluoromethyl)cyclopropyl)-1H-1,2,3-triazol-4-yl)methyl)amino)-4-(neopentylamino)quinoline-3,8-dicarbonitrile] |
| 54 | 2 | Cc1c([C@H](Nc2cc(Cl)c3ncc(C#N)c(NCC(C)(C)C)c3c2)c2cn(C3(C(F)F)CC3)nn2)cccc1-n1ccnc1 [Example 1069, (S)-6-(((3-(1H-imidazol-1-yl)-2-methylphenyl)(1-(1-(difluoromethyl)cyclopropyl)-1H-1,2,3-triazol-4-yl)methyl)amino)-8-chloro-4-(neopentylamino)quinoline-3-carbonitrile] |
